Reference: US6846824B2, “Bicyclic compounds and their use in medicine; process for their preparation and pharmaceutical compositions containing them” (Dr. Reddy's Laboratories Ltd., priority 1997, dated 2005)

Tests used:
Assay type in all cases: in vivo
[1] = test system: Swiss albino mice and Guinea pigs; experiment: Plasma triglyceride and total cholesterol lowering activity in Swiss albino mice and Guinea pigs; settings: species (Swiss albino mice or Guinea pigs) not given
Procedure: Male Swiss albino mice (SAM) and male Guinea pigs were obtained from NIN and housed in DRF animal house. All these animals were maintained under 12 hour light and dark cycle at 25±1° C. Animals were given standard laboratory chow (NIN, Hyderabad, India) and water, ad libitum. SAM of 20-25 g body weight range and Guinea pigs of 500-700 g body weight range were used (Oliver, P., Plancke, M. O., Marzin, D., Clavey, V., Sauzieres, J and Fruchart, J. C. Effects of fenofibrate, gemfibrozil and nicotinic acid on plasma lipoprotein levels in normal and hyperlipidemic mice. Atherosclerosis. 1988. 70: 107-114).
The test compounds were administered orally to Swiss albino mice at 0.3 to 30 mg/kg/day dose for 6 days. Control mice were treated with vehicle (0.25% Carboxymethylcellulose; dose 10 ml/kg). The test compounds were administered orally to Guinea pigs at 0.3 to 30 mg/kg/day dose for 6 days. Control animals were treated with vehicle (0.25% Carboxymethylcellulose; dose 5 ml/kg).
The blood samples were collected in fed state 1 hour after drug administration on 0 and 6 day of treatment. The blood was collected from the retro-orbital sinus through heparinised capillary in EDTA containing tubes. After centrifugation, plasma sample was separated for triglyceride and total cholesterol (Wieland, 0. Methods of Enzymatic analysis. Bergermeyer, H. O., Ed., 1963. 211-214; Trinder, P. Ann. Clin. Biochem. 1969. 6: 24-27). Measurement of plasma triglyceride, total cholesterol and HDL were done using commercial kits (Dr. Reddy's Diagnostic Division, Hyderabad, India).
(§1) Formulae for Calculation: • 1. Percent reduction in Blood sugar/triglycerides/total cholesterol/body weight were calculated according to the formula: • Percent reduction [formula] OC=Zero day control group value OT=Zero day treated group value TC=Test day control group value TT=Test day treated group value

C57BL/KsJ-db/db mice = experiment: Blood sugar and triglycerides lowering activity in db/db mice (genetic model)
From the text: Mutation in colonies of laboratory animals and different sensitivities to dietary regimens have made the development of animal models with non-insulin dependent diabetes and hyperlipidemia associated with obesity and insulin resistance possible. Genetic models such as db/db and ob/ob (Diabetes, (1982) 31(1): 1-6) mice and zucker fa/fa rats have been developed by the various laboratories for understanding the pathophysiology of disease and testing the efficacy of new antidiabetic compounds (Diabetes, (1983) 32: 830-838; Annu. Rep. Sankyo Res. Lab. (1994). 46 : 1-57). The homozygous animals, C57 BL/KsJ-db/db mice developed by Jackson Laboratory, US, are obese, hyperglycemic, hyperinsulinemic and insulin resistant (J. Clin. Invest., (1990) 85: 962-967), whereas heterozygous are lean and normoglycemic. In db/db model, mouse progressively develops insulinopenia with age, a feature commonly observed in late stages of human type II diabetes when blood sugar levels are insufficiently controlled. The state of pancreas and its course vary according to the models. Since this model resembles that of type II diabetes mellitus, the compounds of the present invention were tested for blood sugar and triglycerides lowering activities.
Male C57BL/KsJ-db/db mice of 8 to 14 weeks age, having body weight range of 35 to 60 grams, bred at Dr. Reddy's Research Foundation (DRF)animal house, were used in the experiment. The mice were provided with standard feed (National Institute of Nutrition (NIN), Hyderabad, India) and acidified water, ad libitum. The animals having more than 350 mg/dl blood sugar were used for testing. The number of animals in each group was 4.
Test compounds were suspended on 0.25% carboxymethyl cellulose and administered to test group at a dose of 0.1 mg to 30 mg/kg through oral gavage daily for 6 days. The control group received vehicle (dose 10 ml/kg). On 6th day the blood samples were collected one hour after administration of test compounds/vehicle for assessing the biological activity.
The random blood sugar and triglyceride levels were measured by collecting blood (100 μl) through orbital sinus, using heparinised capillary in tubes containing EDTA which was centrifuged to obtain plasma. The plasma glucose and triglyceride levels were measured spectrometrically, by glucose oxidase and glycerol-3-PO4 oxidase/peroxidase enzyme (Dr. Reddy's Lab. Diagnostic Division Kits, Hyderabad, India) methods respectively.
The blood sugar and triglycerides lowering activities of the test compound was calculated according to the formula.
as §1

[2] = test system: hypercholesterolemic Sprague Dawley rats; experiment: Plasma triglyceride and cholesterol lowering activity in hypercholesterolemic rat models; settings: 1 mg/kg orally for 3 days; for HDL (%) ↑: increase; for Total Cholesterol (%) ↓ / Triglyceride (%) ↓ / LDL (%) ↓ / VLDL (%) ↓: reduction; for LDL (%) ↓: LDL calculated from total cholesterol; for LDL (%) ↓ / VLDL (%) ↓: HDL and triglyceride; for VLDL (%) ↓: VLDL calculated from total cholesterol
Procedure: Male Sprague Dawley rats (NIN stock) were bred in DRF animal house. Animals were maintained under 12 hour light and dark cycle at 25±1° C. Rats of 180 -200 gram body weight range were used for the experiment. Animals were made hypercholesterolemic by feeding 2% cholesterol and 1% sodium cholate mixed with standard laboratory chow [National Institute of Nutrition (NIN), Hyderabad, India] for 6 days. Throughout the experimental period the animals were maintained on the same diet (Petit, D., Bonnefis, M. T., Rey, C and Infante, R. Effects of ciprofibrate on liver lipids and lipoprotein synthesis in normo- and hyperlipidemic rats. Atherosclerosis. 1988. 74:215-225).
The test compounds were administered orally at a dose 0.1 to 30 mg/kg/day for 3 days. Control group was treated with vehicle alone (0.25% Carboxymethylcellulose; dose 10 ml/kg).
The blood samples were collected in fed state 1 hour after drug administration on 0 and 3 day of compound treatment. The blood was collected from the retro-orbital sinus through heparinised capillary in EDTA containing tubes. After centrifugation, plasma sample was separated for total cholesterol, HDL and triglyceride estimations. Measurement of plasma triglyceride, total cholesterol and HDL were done using commercial kits (Dr. Reddy's Laboratory, Diagnostic Division, India). LDL and VLDL cholesterol were calculated from the data obtained for total cholesterol, HDL and triglyceride. The reduction of various parameters examined are calculated according to the formula.
as §1
2. LDL and VLDL cholesterol levels were calculated according to the formula: [formula] [formula]

[3] = test system: cholesterol fed Syrian Hamsters; experiment: Body weight reducing effect in cholesterol fed hamsters; settings: 10 mg/kg/day orally for 15 days
Procedure: Male Syrian Hamsters were procured from NIN, Hyderabad, India. Animals were housed at DRF animal house under 12 hour light and dark cycle at 25±1° C. with free access to food and water. Animals were maintained with 1% cholesterol containing standard laboratory chow (NIN) from the day of treatment.
The test compounds were administered orally at 1 to 30 mg/kg/day dose for 15 days. Control group animals were treated with vehicle (Mill Q water, dose 10 ml/kg/day). Body weights were measured on every 3rd day.
as §1

[4] = 3 mg/kg oral gavage daily for 6 days
[5] = 10 mg/kg oral gavage daily for 6 days

CCOC(Cc1ccc(OCCN2CCOc3ccccc32)cc1)C(N)=O (racemic) [Example 33, 3-[4-[2-(2,3-Dihydro-1,4-benzoxazin-4-yl)ethoxy]phenyl]-2-ethoxypropanamide]
Triglyceride Lowering (%) ([1]; 3 mg/kg orally for 6 days): 55%

CCOC(Cc1ccc(OCCN2C(=O)COc3ccccc32)cc1)C(=O)O (racemic) [Example 41, 3-[4-[2-(3-Oxo-2H-1,4-benzoxazin-4-yl)ethoxy]phenyl]-2-ethoxypropanoic acid]
Reduction in Blood Glucose Level (%) (C57BL/KsJ-db/db mice; [4]): 53%
Triglyceride Lowering (%) (C57BL/KsJ-db/db mice; [4]): 27%
Triglyceride Lowering (%) ([1]; 10 mg/kg orally for 6 days): 54%

CCOC(Cc1ccc2cc(OCCN3CCSc4ccccc43)ccc2c1)C(=O)O (racemic) [Example 43, 3-[6-[2-(2,3-Dihydro-1,4-benzothiazin-4-yl)ethoxy]naphthyl]-2-ethoxypropanoic acid]
Triglyceride Lowering (%) ([1]; 3 mg/kg orally for 6 days): 49%

CCOC(Cc1ccc(OCCN2CCOc3ccccc32)cc1)C(=O)[O-].[Na+] (stereo not shown) [Example 27, 3-[4-[2-(2,3-Dihydro-1,4-benzoxazin-4-yl)ethoxy]phenyl]-2-ethoxypropanoic acid, sodium salt]
HDL (%) ↑ [2]: 37%
Total Cholesterol (%) ↓ [2]: 57%
Triglyceride (%) ↓ [2]: 43%
LDL (%) ↓ [2]: 58%
VLDL (%) ↓ [2]: 79%
Body weight Reduction (%) [3]: 12%

CCOC(Cc1ccc(OCCN2CCSc3ccccc32)cc1)C(=O)[O-].[Na+] (stereo not shown) [Example 30, 3-[4-[2-(2,3-Dihydro-1,4-benzothiazin-4-yl)ethoxy]phenyl]-2-ethoxypropanoic acid, sodium salt]
Body weight Reduction (%) [3]: 18%

CCOC(Cc1ccc2cc(OCCN3CCSc4ccccc43)ccc2c1)C(=O)[O-].[Na+] (stereo not shown) [Example 44]
Reduction in Blood Glucose Level (%) (C57BL/KsJ-db/db mice; [5]): 47%
Triglyceride Lowering (%) (C57BL/KsJ-db/db mice; [5]): 74%
HDL (%) ↑ [2]: 46%
Total Cholesterol (%) ↓ [2]: 42%
Triglyceride (%) ↓ [2]: 50%
LDL (%) ↓ [2]: 44%
VLDL (%) ↓ [2]: 53%

CCCCOC(Cc1ccc(OCCN2CCOc3ccccc32)cc1)C(=O)[O-].[Na+] (stereo not shown) [Example 50, 3-[4-[2-(2,3-Dihydro-1,4-benzoxazin-4-yl)ethoxy]phenyl]-2-butoxypropanoic acid, sodium salt]
Reduction in Blood Glucose Level (%) (C57BL/KsJ-db/db mice; [4]): 45%
Triglyceride Lowering (%) (C57BL/KsJ-db/db mice; [4]): 23%

CCOC(Cc1ccc(OCC2CN(Cc3ccccc3)c3ccccc3O2)cc1)C(=O)[O-].[Na+] (stereo not shown) [Example 63, 3-[4-(4-Benzyl-3,4-dihydro-2H-1,4-benzoxazin-2-yl)methoxyphenyl]-2-ethoxypropanoic acid, sodium salt]
Triglyceride Lowering (%) ([1]; 3 mg/kg orally for 6 days): 57%
